Laboratory results as given in publication PMC12040169 (PLOS Biology, 2025).
≈ marks a conversion by molar mass, not a printed value.

Legend:
[1] = in vitro; set-up: Viability of infected HeLa host cells, resazurin conversion, bulk resorufin fluorescence relative to DMSO; conditions: human, hela cells; bulk resorufin, mean of 3
[2] = system: T1, B. adolescentis; test: microbe, parasite or virus in culture; set-up: Microbial growth in liquid dilution assay, OD600 relative to DMSO control; conditions: Bifidobacterium adolescentis; estimated IC50; read-out: B. adolescentis, IC50 (µM) estimate
T1 construct: DSM 20083
From the text: (§1) Compound effects on commensal microbes in dilution assay As our objective was to discover compounds that inhibit Chlamydia selectively but spare commensal bacteria, we further tested 15 of our top compounds (c1e–c10e and c1v–c5v) against five bacterial species, Escherichia coli, Lactobacillus reuteri, Enterococcus faecalis, Bacteroides thetaiotaomicron, and Bifidobacterium adolescentis, representing the four dominating phyla of the human gut microbiota. […] Exceptions were c3e and c5e, which at 30 µM were inhibitory to some species. […] Of note, c1e–c3e had little or no effect on the growth of an even larger set of species of gut bacteria, also including Blautia coccoides, Prevotella copri, Prevotella histicola, Bacteroides fragilis, and Dubosiella newyorkensis, when tested in radial diffusion assays, in which the bacteria were exposed to compounds for 24–48 h before measurements of growth inhibition zones (S10B Fig and S5G Data).

[3] = system: T2, E. faecalis; test: microbe, parasite or virus in culture; set-up: Microbial growth in liquid dilution assay, OD600 relative to DMSO control; conditions: Enterococcus faecalis; estimated IC50; read-out: E. faecalis, IC50 (µM) estimate
T2 construct: DSM 20478
From the text: as §1

[4] = system: T3, L. reuteri; test: microbe, parasite or virus in culture; set-up: Microbial growth in liquid dilution assay, OD600 relative to DMSO control; conditions: Limosilactobacillus reuteri; estimated IC50; read-out: L. reuteri, IC50 (µM) estimate
T3 construct: DSM 20016
From the text: as §1

[5] = system: T4, B. thetaiotaomicron; test: microbe, parasite or virus in culture; set-up: Microbial growth in liquid dilution assay, OD600 relative to DMSO control; conditions: Bacteroides thetaiotaomicron; estimated IC50; read-out: B. thetaiotaomicron, IC50 (µM) estimate
T4 construct: DSM 2079
From the text: as §1

[6] = system: T5, E. coli; test: microbe, parasite or virus in culture; set-up: Microbial growth in liquid dilution assay, OD600 relative to DMSO control; conditions: Escherichia coli; estimated IC50; read-out: E. coli, IC50 (µM) estimate
T5 construct: DSM 301
From the text: as §1

[7] = system: T6, CTL2-GFP (C. trachomatis L2/434/Bu, GFP-expressing); test: microbe, parasite or virus in culture; set-up: species or system HeLa; C. trachomatis growth in HeLa, dose-response, mean of bulk GFP fluorescence and imaged total inclusion area; conditions: Chlamydia trachomatis, 28.5 h; mean of GFP and inclusion area
T6 construct: L2/434/Bu, GFP-expressing
Procedure, shortened: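 Infected cells treated with library compounds were read for bulk GFP (chlamydial growth) and resorufin fluorescence (host viability), then fixed, Hoechst-stained and imaged. Inclusion area and number from GFP, plus nuclei counts, served as additional growth and viability proxies; MICs derived as previously described.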

[8] = system: T6, CTL2-GFP (C. trachomatis L2/434/Bu, GFP-expressing); test: microbe, parasite or virus in culture; set-up: C. trachomatis growth in HeLa, dose-response, mean of bulk GFP fluorescence and imaged total inclusion area; conditions: Chlamydia trachomatis, HeLa, 28.5 h; mean of GFP and inclusion area
From the text: We screened a library of 36,785 small molecules displaying drug-like properties and covering a wide chemical space (Fig 1A and S2A Data). In this process, we also complemented the assay described above with an imaging-based readout (Fig 1B). After measurements of bulk GFP and resorufin fluorescence, cells were fixed, stained with the DNA dye Hoechst, and imaged at a high-content imaging platform to detect chlamydial inclusions (GFP) and host cell nuclei (Hoechst). The total area and number of inclusions in individual wells and the number of nuclei then served as additional proxies for chlamydial growth and host cell viability. […] MICs were calculated as described above.

| SMILES | viability at 28.5 h, 0.000416667 µM [1] | viability at 28.5 h, 0.00125 µM [1] | viability at 28.5 h, 0.00375 µM [1] | viability at 28.5 h, 0.0123333 µM [1] | viability at 28.5 h, 0.037 µM [1] | viability at 28.5 h, 0.111 µM [1] | viability at 28.5 h, 0.333 µM [1] | viability at 28.5 h, 1 µM [1] | viability at 28.5 h, 3 µM [1] | viability at 28.5 h, 10 µM [1] | viability at 28.5 h, 30 µM [1] | IC50 [2] | IC50 [3] | IC50 [4] | IC50 [5] | IC50 [6] | MIC [7] | IC50 [8] |
| --- | --- | --- | --- | --- | --- | --- | --- | --- | --- | --- | --- | --- | --- | --- | --- | --- | --- | --- |
| O=C(N/N=C/c1ccc(Sc2cccc3cccnc23)o1)c1cccc(F)c1 [c10e] | 84.5% | 93.8% | 84.5% | 91.6% | 82.9% | 92.9% | 88% | 94.1% | 89.3% | 89.9% | 81.1% | > 30 µM | > 30 µM | > 30 µM | > 30 µM | > 30 µM | 5.57 µM (≈ 2.18 µg/mL) | 0.828 µM |
| N#Cc1c(Nc2cccc(C(F)(F)F)c2)sc(C(=O)c2ccc3c(c2)OCO3)c1N [c8e] | 88% | 94.7% | 88.4% | 85.7% | 86% | 87.3% | 85.7% | 94.3% | 81.6% | 77.1% | 62.5% | > 30 µM | > 30 µM | > 30 µM | > 30 µM | > 30 µM | 0.936 µM (≈ 0.404 µg/mL) | 0.567 µM |
| O=C(Nc1ccc(F)c(F)c1)NC1CCC2CN(CCOc3ccccc3)CC2C1 (stereo not shown) [c9e] | 90.2% | 92.6% | 90.8% | 91.5% | 89% | 92% | 91.6% | 94.6% | 92.9% | 95.3% | 102% | > 30 µM | > 30 µM | > 30 µM | > 30 µM | > 30 µM | 2.63 µM (≈ 1.09 µg/mL) | 0.641 µM |
| FC(F)(F)c1ccc(N2CCNCC2)nc1OCc1ccc2c(c1)OCCO2 [c46e] | 85.8% | 88.5% | 88.8% | 94.6% | 90.4% | 93.4% | 88.9% | 91.1% | 94% | 97.2% | 11.7% | – | – | – | – | – | 11.3 µM (≈ 4.47 µg/mL) | 6.17 µM |
| O=C(NCCc1c[nH]c2ccc(Cl)cc12)c1c(F)ccc(Cl)c1F [c42e] | 100% | 101% | 98.1% | 104% | 99.6% | 101% | 106% | 109% | 107% | 103% | 107% | – | – | – | – | – | 5.43 µM (≈ 2 µg/mL) | 5.3 µM |
| CCCN(CCC)CCc1cccc2c1CCN2C(=O)c1cc2ccccc2s1 [c15e] | 87.3% | 89.2% | 89.8% | 88.8% | 85.5% | 94.8% | 94.4% | 90.6% | 91.2% | 99.9% | 91.3% | – | – | – | – | – | 3.22 µM (≈ 1.31 µg/mL) | 1.15 µM |
| O=C(CC1SC(Nc2ccc(O)cc2)=NC1=O)c1ccccc1 (stereo not shown) [c13e] | 95% | 92.7% | 87.7% | 95% | 87.6% | 92% | 86.2% | 88.7% | 85.2% | 85.6% | 83.8% | – | – | – | – | – | 4.56 µM (≈ 1.49 µg/mL) | 1.03 µM |
